Data taken from patent publication EP0108170A1, “3-Benzazepines as alpha-2 antagonists” (SMITHKLINE BECKMAN CORPORATION, priority 1982, dated 1984).

Columns and labels:
alpha2 = experiment: prejunctional alpha2 antagonist activity, isolated superfused guinea pig left atrium (shift of clonidine concentration-response curve); assay type: cell-based
Method: Briefly, the heart is removed from a pentobarbital-anesthetized male guinea pig. The left atrium is removed, dissected free of extraneous tissue and mounted in a 2 ml. superfusion chamber. The tissue is paced at 60 pulse/minute and the sympathetic nerves excited at 6 minute intervals by field stimulation. The response to nerve stimulation is measured as the difference in contractile force between the basal contraction and peak contraction following a nerve stimulation. A concentration-response curve for clonidine (alpha2 agonist) is prepared by administering an increasing concentration of clonidine following each successive stimulation. The tissue is then superfused with the alpha2 antagonist to be tested for thirty minutes and the clonidine concentration-effect curve was repeated in the presence of antagonist. The receptor dissociation constant of the antagonist (KB) is defined as the antagonist concentration required to shift the log concentration-response curve of the agonist to the right by a factor of 2.

rabbit = experiment: normal rabbit intraocular pressure determination (applanation pneumatonograph); assay type: in vivo; settings: given systemically
[1] = test system: normotensive and hypertensive rats; experiment: antihypertensive activity in vivo, blood pressure in conscious cannulated rats; settings: for effect on diastolic blood pressure: i.v. administration
Method: Cannulas are run intradermally so as to be externalized in the dorso-sacral area of either side and kept in place by wound clips. The rats are allowed to regain consciousness after being placed in a small animal restrainer. The arterial cannula is connected to a pressure transducer for constant blood pressure and heart rate monitoring. Drugs are administered either orally via gavage or i.v. via the femoral vein cannula at a rate of 0.06 ml./minute.
The above test is conducted on both normotensive and hypertensive rats. DOCA Salt hypertensive rats are prepared from male uninephrectomized Sprague-Dawley rats. The rats, approximately six weeks of age, are lightly anesthetized with ether and subcutaneously implanted with a 25 mg. deoxycorticosterone acetate pellet in the left dorso-sacral area..Six days later a second pellet is implanted in the right dorso-sacral area. These rats are fed a normal laboratory diet, but are given 1% saline - solution to drink in place of water. The rats are kept on the saline drinking water for 22-24 days.
The following table sets forth the effect of 6-chloro-2,3,4,5-tetrahydro-3-methyl-lH-3-benzazepine on blood pressure after i.v. administration to both normotensive and hypertensive rats.

SMILES | Kb (alpha2; isolated perfused guinea pig left atrium, antagonist concentration shifting clonidine curve to the right by a factor of 2) | effect on systemic blood pressure (rabbit) | effect on diastolic blood pressure ([1]; DOCA Salt hypertensive rats) | antihypertensive effect, dose dependence ([1]; comparison of the 0.5 mg./kg. and 1.0 mg./kg. doses, i.v.) | effect on diastolic blood pressure ([1]; normotensive rats) | effect on diastolic blood pressure ([1]; spontaneously hypertensive rats) | alpha2 antagonist activity relative to the 6-chloro derivative (alpha2; fraction of the activity of the 6-chloro derivative)
CN1CCc2cccc(Cl)c2CC1 [6-chloro-2,3,4,5-tetrahydro-3-methyl-lH-3-benzazepine] | 13 nM | no significant effect | marked drop | dose- related | little effect | marked drop | 
CN1CCc2ccc(Cl)cc2CC1 [7-chloro-2,3,4,5-tetrahydro-3-methyl-lH-3-benzazepine, reference compound] |  |  |  |  |  |  | about one tenth
